Patent US11066414B2, “Cot modulators and methods of use thereof” (Gilead Sciences, Inc., priority 2015, dated 2021)
Where two headings read alike, the source gives them in different places.

Key:
TNFα = experiment: Cot Monocyte TNFα Cell Based Assay
Human Cot = Human Cot (Homo sapiens (Human), UniProt P41279); experiment: High Throughput Cot Biochemical Assay
[1] = read-out: EC50 TNF, LPS-stimulated human monocytes, TNFα
[2] = read-out: IC50 HTRF, Cot HTRF (TR-FRET) biochemical assay
[3] = Homo sapiens, Monocyte, read-out: EC50 TNF, LPS-stimulated human monocytes, TNFα
[4] = IC50 HTRF, Cot HTRF (TR-FRET) biochemical assay

Chain of Human Cot (P41279 30-397): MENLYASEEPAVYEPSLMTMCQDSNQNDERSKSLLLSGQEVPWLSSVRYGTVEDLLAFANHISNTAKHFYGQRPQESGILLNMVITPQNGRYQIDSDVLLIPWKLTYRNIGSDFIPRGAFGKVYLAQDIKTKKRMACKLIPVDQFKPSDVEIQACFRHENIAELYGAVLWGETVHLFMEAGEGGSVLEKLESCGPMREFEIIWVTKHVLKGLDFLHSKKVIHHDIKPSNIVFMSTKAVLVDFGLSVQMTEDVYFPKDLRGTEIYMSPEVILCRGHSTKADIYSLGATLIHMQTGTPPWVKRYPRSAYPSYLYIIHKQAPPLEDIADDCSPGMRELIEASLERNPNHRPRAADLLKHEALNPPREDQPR

| Structure (SMILES) | EC50 (TNFα; [3]) | IC50 (Human Cot; [4]) | further results |
| --- | --- | --- | --- |
| Cc1nc(F)ccc1[C@H](Nc1cc(C#N)c2ncc(C#N)c(NCC(C)(C)C)c2c1)c1cn(CC(F)F)nn1 [Example 634, (S)-6-(((1-(2,2-dinuoroethyl)-1H-1,2,3-triazol-4-yl)(6-fluoro-2-methylpyridin-3-yl)methyl)amino)-4-(neopentylamino)quinoline-3,8-dicarbonitrile] | – | – | EC50 (TNFα; [1]): 43 nM; IC50 (Human Cot; [2]): 2 nM |
| COc1nccc2c([C@H](Nc3cc(C#N)c4ncc(C#N)c(NCC(C)(C)C)c4c3)c3cn(C4(C)CC4)nn3)cccc12 [Example 809, (S)-6-(((1-methoxylsoquinolin-5-yl)(1-(1-methylcyclopropyl)-1H-1,2,3-triazol-4-yl)methyl)amino)-4-(neopentylamino)quinoline-3,8-dicarbonitrile] | – | – | EC50 (TNFα; read-out: EC50 TNF, LPS-stimulated human monocytes, TNFα TR-FRET): 32 nM; IC50 (Human Cot; read-out: IC50 HTRF, Cot HTRF (TR-FRET KinEASE) biochemical assay, 400 μM ATP): 3 nM |
| CC[C@@H](Nc1c(C#N)cnc2c(Cl)cc(N[C@@H](c3ccc(F)nc3C)c3nnn(C4(C(F)(F)F)CC4)c3F)cc12)c1ccccc1 [Example 950, 8-chloro-6-(((S)-(5-fluoro-1-(1-(trifluoromethyl)cyclopropyl)-1H-1,2,3-triazol-4-yl)(6-fluoro-2-methylpyridin-3-yl)methyl)amino)-4-(((R)-1-phenylpropyl)amino)quinoline-3-carbonitrile] | – | – | EC50 (TNFα; Homo sapiens, Monocyte, read-out: EC50 TNF, LPS-stimulated human monocytes, TNFα TR-FRET): 260 nM; IC50 (Human Cot; IC50 HTRF, Cot HTRF (TR-FRET KinEASE) biochemical assay, 400 μM ATP): 17 nM |
| COCCOCCn1cc([C@@H](Nc2cc(Cl)c3ncc(C#N)c(Nc4ccc(F)c(Cl)c4)c3c2)c2cccnc2)nn1 [Example 340, (S)-8-chloro-4-((3-chloro-4-fluorophenyl)amino)-6-(((1-(2-(2-methoxyethoxy)ethyl)-1H-1,2,3-triazol-4-yl)(pyridin-3-yl)methyl)-amino)quinoline-3-carbonitrile] | 328 nM | 8 nM | – |
| CC(C)(C)N1CCC(n2cc([C@@H](Nc3cc(Cl)c4ncc(C#N)c(Nc5cccc(Cl)c5F)c4c3)c3csc4c3CCN(C3COC3)C4)nn2)CC1 [Example 241, (S)-6-(((1-(1-(tert-butyl)piperidin-4-yl)-1H-1,2,3-triazol-4-yl)(6-(oxetan-3-yl)-4,5,6,7-tetrahydrothieno[2,3-c]pyridin-3-yl)methyl)amino)-8-chloro-4-((3-chloro-2-fluorophenyl)amino)-quinoline-3-carbonitrile] | 32 nM | 2 nM | – |
| N#Cc1cnc2c(Cl)cc(N[C@@H](c3cscn3)c3c[nH]nn3)cc2c1Nc1ccc(F)c(Cl)c1 [Example 276, (S)-8-chloro-4-((3-chloro-4-fluorophenyl)amino)-6-((thiazol-4-yl(1H-1,2,3-triazol-4-yl)methyl)amino)quinoline-3-carbonitrile] | 789 nM | 6 nM | – |
| N#Cc1cnc2c(Cl)cc(N[C@@H](c3cocn3)c3c[nH]nn3)cc2c1N[C@H](CO)c1ccccc1 [Example 215, 8-chloro-4-(((S)-2-hydroxy-1-phenylethyl)amino)-6-(((S)-o)(azol-4-yl(1H-1,2,3-triazol-4-yl)methyl)amino)quinoline-3-carbonitrile] | – | – | EC50 (TNFα; [1]): > 10000 nM; IC50 (Human Cot; [2]): 258 nM |
| CCN1CCc2c([C@H](Nc3cc(Cl)c4ncc(C#N)c(Nc5ccc(F)c(Cl)c5)c4c3)c3cn(C4COC4)nn3)csc2C1 [Example 278, (S)-8-chloro-4-((3-chloro-4-fluorophenyl)amino)-6-(((6-ethyl-4,5,6,7-tetrahydro-thieno[2,3-c]pyridin-3-yl)(1-(oxetan-3-yl)-1H-1,2,3-triazol-4-yl)methyl)amino)quinoline-3-carbonitrile] | – | – | EC50 (TNFα; Homo sapiens, Monocyte, read-out: EC50 TNF): 269 nM; IC50 (Human Cot): 3 nM |
| Cc1nc(F)ccc1[C@H](Nc1cc(Cl)c2ncc(C#N)c(N[C@@H]3CCOCC3(C)C)c2c1)C1=CN(C2(C3CC3)CC2)NN1 [Example 669] | – | – | EC50 (TNFα; [1]): 7 nM; IC50 (Human Cot; [2]): 1 nM |
| CC[C@@H](Nc1c(C#N)cnc2c(C#N)cc(N[C@H](c3cn(C4(C(F)(F)F)CC4)nn3)c3cccc4ncsc34)cc12)c1ccccc1 [Example 412, 6-(((S)-benzo[d]thiazol-7-yl(1-(1-(trifluoromethyl)-cyclopropyl)-1H-1,2,3-triazol-4-yl)methyl)amino)-4-(((R)-1-phenylpropyl)amino)quinoline-3,8-dicarbonitrile] | 157 nM | 7 nM | – |
| Cn1cncc1[C@H](Nc1cc(Cl)c2ncc(C#N)c(Nc3ccc(F)c(Cl)c3)c2c1)c1cn(C2CCN(C(C)(C)C)CC2)nn1 [Example 342, (S)-6-(((1-(1-(tert-butyl)piperidin-4-yl)-1H-1,2,3-triazol-4-yl)(1-methyl-1H-imidazol-5-yl)methyl)amino)-8-chloro-4-((3-chloro-4-fluorophenyl)-amino)quinoline-3-carbonitrile] | 6090 nM | 38 nM | – |
| Cc1ccc([C@H](Nc2cc(Cl)c3ncc(C#N)c(Nc4ccc(F)c(Cl)c4)c3c2)c2cn(COC(=O)C(C)(C)C)nn2)cn1 [Example 273, (S)-(4-(((8-chloro-4-((3-chloro-4-fluorophenyl)amino)-3-cyanoquinolin-6-yl)amino)(6-methylpyridin-3-yl)methyl)-1H-1,2,3-triazol-1-yl)methyl pivalate] | 1560 nM | 51 nM | – |
| CC[C@@H](Nc1c(C#N)cnc2c(Cl)cc(N[C@@H](c3cccnc3)c3cn(CC(F)(F)F)nn3)cc12)c1ccccc1 [Example 195, 8-chloro-4-(((R)-1-phenylpropyl)amino)-6-(((S)-pyridin-3-yl(1-(2,2,2-trifluoroethyl)-1H-1,2,3-triazol-4-yl)methyl)amino)quinoline-3-carbonitrile] | 132 nM | 4 nM | – |
| N#Cc1cnc2c(Cl)cc(N[C@H](c3cn(C4COC4)nn3)c3csc(N4CCOCC4)n3)cc2c1Nc1ccc(F)c(Cl)c1 [Example 302, (S)-8-chloro-4-((3-chloro-4-fluoro-phenyl)amino)-6-(((2-morpholinothiazol-4-yl)(1-(oxetan-3-yl)-1H-1,2,3-triazol-4-yl)methyl)amino)quinoline-3-carbonitrile] | 472 nM | 10 nM | – |
| [2H]C(Nc1cc(Cl)c2ncc(C#N)c(NC(CCC#N)c3ccccc3)c2c1)(c1ccc(F)nc1)c1cn(C2CC2)nn1 (stereo not shown) [Example 93, 8-chloro-4-((3-cyano-1-phenylpropyl)amino)-6-(((1-cyclopropyl-1H-1,2,3-triazol-4-yl)(6-fluoropyridin-3-yl)methyl-d)amino)quinoline-3-carbonitrile] | 74 nM | 7 nM | – |
| CC(C)(C)N1CCC(n2cc([C@@H](Nc3cc(Cl)c4ncc(C#N)c(Nc5ccc(Cl)c(Cl)c5)c4c3)c3cscn3)nn2)CC1 [Example 350, (S)-6-(((1-(1-(tert-butyl)piperidin-4-yl)-1H-1,2,3-triazol-4-yl)(thiazol-4-yl)methyl)amino)-8-chloro-4-((3,4-dichlorophenyl)amino)quinoline-3-carbonitrile] | 4510 nM | 26 nM | – |
| CC(C)(C)CNc1c(C#N)cnc2c(Cl)cc(N[C@H](c3cn(C4(C#N)CC4)nn3)c3cccc4cnccc34)cc12 [Example 563, (S)-8-chloro-6-(((1-(1-cyanocyclopropyl)-1H-1,2,3-triazol-4-yl)(isoquinolin-5-yl)methyl)amino)-4-(neopentylamino)-quinoline-3-carbonitrile] | 63 nM | 2 nM | – |

Second part, led by results:

| EC50 (TNFα; [3]) | IC50 (Human Cot; [4]) | Structure (SMILES) | further results |
| --- | --- | --- | --- |
| 189 nM | 7 nM | Cc1ncsc1[C@H](Nc1cc(Cl)c2ncc(C#N)c(NCC(C)(C)C)c2c1)c1cn(C2(C(F)F)CC2)nn1 [Example 619, (R)-8-chloro-6-(((1-(1-(difluoromethyl)-cyclopropyl)-1H-1,2,3-triazol-4-yl)(4-methylthiazol-5-yl)methyl)amino)-4-(neopentylamino)quinoline-3-carbonitrile] | – |
| 36 nM | 3 nM | Cc1nc(F)ccc1[C@H](Nc1cc(Cl)c2ncc(C#N)c(NCC(C)(C)C)c2c1)c1cn(Cc2c(F)cccc2F)nn1 [Example 654, (S)-8-chloro-6-(((1-(2,6-difluorobenzyl)-1H-1,2,3-triazol-4-yl)(6-fluoro-2-methylpyridin-3-yl)methyl)amino)-4-(neopentylamino)quinoline-3-carbonitrile] | – |
| 30 nM | 2 nM | Cc1nc(F)ccc1[C@H](Nc1cc(Cl)c2ncc(C#N)c(NCC(C)(C)C)c2c1)c1cn(C2CC23CC3)nn1 (stereo partly drawn) [Example 766, 8-chloro-6-(((1S)-(6-fluoro-2-methylpyridin-3-yl)(1-(spiro[2.2]pentan-1-yl)-1H-1,2,3-triazol-4-yl)methyl)amino)-4-(neopentylamino)quinoline-3-carbonitrile] | – |
| 974 nM | 1 nM | CC(C)(C)CNc1c(C#N)cnc2c(C#N)cc(N[C@H](c3cn(C4(C(N)=O)CC4)nn3)c3cccc4ncccc34)cc12 [Example 575, (S)-1-(4-(((3,8-dicyano-4-(neopentylamino)-quinolin-6-yl)amino)(quinolin-5-yl)methyl)-1H-1,2,3-triazol-1-yl)cyclopropane-1-carboxamide] | – |
| 112 nM | 9 nM | Cc1nc(Cl)ccc1[C@H](Nc1cc(Cl)c2ncc(C#N)c(NCC(C)(C)C)c2c1)c1cn(C2(C(F)F)CC2)nn1 [Example 718, (S)-8-chloro-6-(((6-chloro-2-methylpyridin-3-yl)(1-(1-(difluoromethyl)cyclopropyl)-1H-1,2,3-triazol-4-yl)methyl)amino)-4-(neopentylamino)quinoline-3-carbonitrile] | – |
| 26 nM | 2 nM | Cc1nc(F)ccc1[C@H](Nc1cc(C#N)c2ncc(C#N)c(NCC(C)(C)C)c2c1)c1cn(C(C)(C)CF)nn1 [Example 625, (S)-6-(((1-{1-fluoro-2-methylpropan-2-yl)-1H-1,2,3-triazol-4-yl)(6-fluoro-2-methylpyridin-3-yl)methyl)amino)-4-(neopentylamino)quinoline-3,8-dicarbonitrile] | – |
